According to ChEMBL document CHEMBL1129016, “Synthesis and in vitro evaluation of 3-substituted-1-azaanthraquinones” (Bioorg Med Chem Lett, 1996):
In brackets after ≈: the same amount, converted by molar mass.

Experiments:
SNU-354 = assay: In vitro cytotoxic activity against SNU-354(liver cancer cell) by using SRB assay after 72 hr of drug exposure; format: functional, cell-based; conditions: Homo sapiens, SNU-354, 72 h
SNU1 = assay: In vitro cytotoxic activity against SNU-1(stomach cancer cell) by using SRB assay after 72 hr of drug exposure; format: functional, cell-based; conditions: Homo sapiens, SNU1, 72 h
MCF7 [1] = assay: In vitro cytotoxic activity against human breast cancer cells (MCF-7) by using SRB assay after 72 hr of drug exposure; format: functional, cell-based; conditions: MCF7, 72 h
MCF7 [2] = assay: In vitro cytotoxic activity against subline resistant to doxorubicin (MCF-7/R) by using SRB assay after 72 hr of drug exposure; format: functional, cell-based; conditions: Homo sapiens, MCF7, 72 h
[3] = Resistance index expressed as the ratio of IC50 of resistant cell line (MCF-7/R) to IC50 of sensitive cell line (MCF-7); format: functional

Structure (SMILES) | IC50 (SNU-354) [µg/mL] | IC50 (SNU1) [µg/mL] | IC50 (MCF7 [1]) [µg/mL] | IC50 (MCF7 [2]) [µg/mL] | Resistance index [3]
O=C1c2ccccc2C(=O)c2ncc(CO)cc21 | 4.5 (≈ 18.8 µM) | 8.1 (≈ 33.9 µM) | 6.66 (≈ 27.8 µM) | 17.7 (≈ 74.1 µM) | 2.7
CC(C)NC(=O)OCc1cnc2c(c1)C(=O)c1ccccc1C2=O | > 20 | > 20 | > 100 | > 100 | 
Cc1cnc2c(c1)C(=O)c1ccccc1C2=O | > 20 | 13.9 (≈ 62.3 µM) | 18.3 (≈ 82.1 µM) | 69.1 (≈ 309 µM) | 3.8
CC(=O)OCc1cnc2c(c1)C(=O)c1ccccc1C2=O | 11.8 (≈ 42 µM) | 8.4 (≈ 29.9 µM) | 6.7 (≈ 23.8 µM) | 49.9 (≈ 177 µM) | 7.4
COc1cccc2c1C(=O)c1c(O)c3c(c(O)c1C2=O)C[C@@](O)(C(=O)CO)C[C@@H]3O[C@H]1C[C@H](N)[C@H](O)[C@H](C)O1 [DOXORUBICIN] | 0.54 (≈ 0.994 µM) | 0.27 (≈ 0.497 µM) |  |  | 
O=C(Nc1ccccc1)OCc1cnc2c(c1)C(=O)c1ccccc1C2=O | 15.2 (≈ 42.4 µM) | 14.9 (≈ 41.6 µM) | 4.58 (≈ 12.8 µM) | 57.3 (≈ 160 µM) | 12.5
O=C1c2ccccc2C(=O)c2ncc(CBr)cc21 | 0.89 (≈ 2.95 µM) | 0.56 (≈ 1.85 µM) | 2.49 (≈ 8.24 µM) | 3.08 (≈ 10.2 µM) | 1.2
